Where “and” joins values, the source holds several entries; their conditions need not be identical. Equal entries are not always repeated. Toxic doses and inconclusive results are not listed. Residues, ends and D or L forms follow the SMILES beside them.

This assay has as its system BDF1 mice, P388 leukemia ip, median survival T/C. Description: NCI In Vivo Anticancer Drug Screen. Data for tumor model P388 Leukemia (intraperitoneal) in B6D2F1 (BDF1) mice. Conditions: endpoint: median survival time, higher = longer survival. In a few lines: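 Read-out is survival of treated animals expressed relative to the vehicle group, as a T/C ratio.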
The mark [1] stands for this setting: dose: 100.0 mg/kg/injection, schedule: Q01DX009 (ip), vehicle: saline with Tween-80.
The mark [2] stands for this setting: dose: 100.0 mg/kg/injection, schedule: Q04DX003 (ip), vehicle: saline with Tween-80.
[3] abbreviates: dose: 200.0 mg/kg/injection, schedule: Q01DX009 (ip), vehicle: saline with Tween-80.
Setting [4] is: dose: 200.0 mg/kg/injection, schedule: Q04DX003 (ip), vehicle: saline with Tween-80.
Setting [5] is: dose: 400.0 mg/kg/injection, schedule: Q01DX009 (ip), vehicle: saline with Tween-80.
Where [6] appears, read: dose: 400.0 mg/kg/injection, schedule: Q04DX003 (ip), vehicle: saline with Tween-80.
Setting [7] is: dose: 12.5 mg/kg/injection, schedule: Q01DX009 (ip), vehicle: saline.
The mark [8] stands for this setting: dose: 50.0 mg/kg/injection, schedule: Q01DX009 (ip), vehicle: saline with Tween-80.
Where [9] appears, read: dose: 100.0 mg/kg/injection, schedule: Q04DX003 (ip), vehicle: Klucel (hydroxypropylcellulose) (HPC).
The mark [10] stands for this setting: dose: 200.0 mg/kg/injection, schedule: Q04DX003 (ip), vehicle: Klucel (hydroxypropylcellulose) (HPC).
[11] abbreviates: dose: 400.0 mg/kg/injection, schedule: Q04DX003 (ip), vehicle: Klucel (hydroxypropylcellulose) (HPC).

For `c1ccc(C(=NCCN=C(c2ccccc2)c2ccccc2)c2ccccc2)cc1`, the T/C is 87 % of control under setting [1]; 100 % of control under setting [2]; 104 % of control under setting [3]; 91 % of control under setting [4]; 112 % of control under setting [5]; 95 % of control under setting [6].
Take `Cc1cc(Cl)n[nH]1`: the T/C (dose: 25.0 mg/kg/injection, schedule: Q01DX009 (ip), vehicle: saline with Tween-80) was 98 % of control.
For `c1ccc(CCSc2ccccc2)cc1`, the T/C was 113 % of control under setting [2], 109 % of control under setting [4] and 118 % of control under setting [6].
Regarding `Nc1ccc2nc3ccccc3c(NCCCCCCCCNc3c4ccccc4nc4ccc(N)cc34)c2c1`, the T/C is, setting by setting: (dose: 2.5 mg/kg/injection, schedule: Q01DX009 (ip), vehicle: water) 154 % of control; (dose: 10.0 mg/kg/injection, schedule: Q01DX009 (ip), vehicle: water) 165 % of control.
Turning to `CCCCCCCCC[N+]12CC[N+](CCCCCCCCC)(CC1)CC2`, the T/C is, setting by setting: (dose: 3.13 mg/kg/injection, schedule: Q01DX009 (ip), vehicle: saline) 101 % of control; (dose: 6.25 mg/kg/injection, schedule: Q01DX009 (ip), vehicle: saline) 97 % of control; under setting [7], 98 % of control.
For the compound `Cc1cc(O)c(NCCCN(C)C)c2c(=O)c3ccccc3sc12`, the T/C under setting [8] is 108 % of control and the T/C under setting [3] is 115 % of control.
With `Cc1ccc(C)c(Nc2cc(=O)[nH]c(=O)[nH]2)c1`, the T/C reads like this: (dose: 100.0 mg/kg/injection, schedule: Q01DX001 (ip), vehicle: Klucel (hydroxypropylcellulose) (HPC)) 98 % of control; (dose: 200.0 mg/kg/injection, schedule: Q01DX001 (ip), vehicle: Klucel (hydroxypropylcellulose) (HPC)) 103 % of control.
As to `CC(=O)NC(C)C(=O)NC(C)C(=O)NC(C)C(=O)NC(C)C(=O)O` (centres undefined) (Ac-AAAA-OH; configuration not given here), the T/C was 98 % of control (dose: 50.0 mg/kg/injection, schedule: Q01DX005 (ip), vehicle: saline with Tween-80) and 95 % of control (dose: 100.0 mg/kg/injection, schedule: Q01DX005 (ip), vehicle: saline with Tween-80).
Regarding `CC1=Nc2ccccc2NC(C)(C)C1`, the T/C (dose: 100.0 mg/kg/injection, schedule: Q04DX003 (ip), vehicle: saline) was 101 % of control; the T/C (dose: 200.0 mg/kg/injection, schedule: Q04DX003 (ip), vehicle: saline) is 99 % of control; the T/C (dose: 400.0 mg/kg/injection, schedule: Q04DX003 (ip), vehicle: saline) is 90 % of control.
Consider `O=C(N/N=C/c1ccccc1Cl)c1ccccc1`, for which the T/C is 109 % of control (dose: 100.0 mg/kg/injection, schedule: Q01DX009 (ip), vehicle: Klucel (hydroxypropylcellulose) (HPC)); 118 % of control (dose: 200.0 mg/kg/injection, schedule: Q01DX009 (ip), vehicle: Klucel (hydroxypropylcellulose) (HPC)); 90 % of control (dose: 400.0 mg/kg/injection, schedule: Q01DX009 (ip), vehicle: Klucel (hydroxypropylcellulose) (HPC)).
Regarding `O=C1OC(c2ccccc2)=N/C1=C\c1cccc(Br)c1`, the T/C by setting is: (dose: 50.0 mg/kg/injection, schedule: Q04DX002 (ip), vehicle: saline with Tween-80) 99 % of control; (dose: 100.0 mg/kg/injection, schedule: Q04DX002 (ip), vehicle: saline with Tween-80) 105 % of control; (dose: 200.0 mg/kg/injection, schedule: Q04DX002 (ip), vehicle: saline with Tween-80) 89 % of control.
As to `c1ccc([I+]c2ccccc2)cc1`, the T/C is, setting by setting: (dose: 1.0 mg/kg/injection, schedule: Q01DX009 (ip), vehicle: saline) 100 % of control; (dose: 2.0 mg/kg/injection, schedule: Q01DX009 (ip), vehicle: saline) 104 % of control; (dose: 4.0 mg/kg/injection, schedule: Q01DX009 (ip), vehicle: saline) 90 % of control; (dose: 12.5 mg/kg/injection, schedule: Q04DX003 (ip), vehicle: saline sonified) 115 % of control; (dose: 12.5 mg/kg/injection, schedule: Q04DX003 (sc), vehicle: olive oil, sesame oil, peanut oil) 96 % of control; (dose: 25.0 mg/kg/injection, schedule: Q04DX003 (sc), vehicle: olive oil, sesame oil, peanut oil) 100 % of control.
Take `COc1c(C)c2c(c(O)c1C/C=C(\C)CCC(=O)O)C(=O)OC2`: the T/C (dose: 25.0 mg/kg/injection, schedule: Q01DX010 (ip), vehicle: saline) was 112 % of control and 100 % of control; the T/C (dose: 50.0 mg/kg/injection, schedule: Q01DX010 (ip), vehicle: saline) was 104 % of control and 118 % of control; the T/C (dose: 100.0 mg/kg/injection, schedule: Q01DX010 (ip), vehicle: saline) was 116 % of control and 100 % of control; the T/C (dose: 100.0 mg/kg/injection, schedule: Q04DX002 (ip), vehicle: Klucel (hydroxypropylcellulose) (HPC)) is 100 % of control; the T/C (dose: 200.0 mg/kg/injection, schedule: Q01DX010 (ip), vehicle: saline) is 100 % of control and 118 % of control; the T/C (dose: 200.0 mg/kg/injection, schedule: Q04DX002 (ip), vehicle: Klucel (hydroxypropylcellulose) (HPC)) was 100 % of control. In addition, for the setting “dose: 400.0 mg/kg/injection, schedule: Q04DX002 (ip), vehicle: Klucel (hydroxypropylcellulose) (HPC)”, the T/C was 116 % of control.
On to `NC(=O)C1CCCC12NC(=O)NC2=O` (centres undefined), for which the T/C runs as follows: under setting [9], 109 % of control; under setting [10], 100 % of control; under setting [11], 95 % of control.
Turning to `O=C1/C(=C/c2ccc(Cl)cc2)SC(=S)N1CCCN1CCOCC1`, the T/C is, setting by setting: under setting [8], 91 % of control; under setting [1], 88 % of control; under setting [3], 91 % of control.
Take `COc1cc2c(cc1OC)C1CCc3cc(OC)c(OC)cc3C1N=C2` (centres undefined): the T/C runs as follows: (dose: 20.0 mg/kg/injection, schedule: Q01DX009 (ip), vehicle: saline) 95 % of control; (dose: 40.0 mg/kg/injection, schedule: Q01DX009 (ip), vehicle: saline) 95 % of control; (dose: 80.0 mg/kg/injection, schedule: Q01DX009 (ip), vehicle: saline) 100 % of control; (dose: 120.0 mg/kg/injection, schedule: Q01DX009 (ip), vehicle: saline) 100 % of control; (dose: 240.0 mg/kg/injection, schedule: Q01DX009 (ip), vehicle: saline) 95 % of control.
Turning to `CCOc1ccc(Br)cc1/C=C1\N=C(c2ccccc2)OC1=O`, the T/C is 95 % of control under setting [9], 100 % of control under setting [10] and 95 % of control under setting [11].
As for `N/C(=N\O)c1cccnc1`, the T/C is 109 % of control (dose: 12.5 mg/kg/injection, schedule: Q01DX009 (ip), vehicle: water); 102 % of control (dose: 25.0 mg/kg/injection, schedule: Q01DX009 (ip), vehicle: water); 102 % of control (dose: 50.0 mg/kg/injection, schedule: Q01DX009 (ip), vehicle: water); 101 % of control and 102 % of control (dose: 50.0 mg/kg/injection, schedule: Q04DX003 (ip), vehicle: water); 102 % of control (dose: 100.0 mg/kg/injection, schedule: Q01DX009 (ip), vehicle: water); 87 % of control and 105 % of control (dose: 100.0 mg/kg/injection, schedule: Q04DX003 (ip), vehicle: water). In addition, the T/C runs as follows: (dose: 200.0 mg/kg/injection, schedule: Q01DX009 (ip), vehicle: water) 107 % of control; (dose: 200.0 mg/kg/injection, schedule: Q04DX003 (ip), vehicle: water) 100 % of control and 107 % of control; (dose: 300.0 mg/kg/injection, schedule: Q04DX003 (ip), vehicle: water) 108 % of control; (dose: 400.0 mg/kg/injection, schedule: Q01DX009 (ip), vehicle: water) 107 % of control.
Consider `c1ccc(C2OC2(c2ccccc2)c2ccccc2)cc1` (centres undefined), for which the T/C was 95 % of control under setting [2], 104 % of control under setting [4] and 95 % of control under setting [6].
For `CCCCCCCCCCCC(=O)c1ccc(Cl)cc1`, the T/C is, setting by setting: under setting [1], 91 % of control; under setting [3], 92 % of control; under setting [5], 109 % of control.
As for `CC([OH2+])CNCCN.CC([OH2+])CNCCN.[Cu+2].[O-][Cl+3]([O-])([O-])[O-]` (centres undefined), the T/C runs as follows: under setting [7], 108 % of control; (dose: 25.0 mg/kg/injection, schedule: Q01DX009 (ip), vehicle: saline) 115 % of control; (dose: 50.0 mg/kg/injection, schedule: Q01DX009 (ip), vehicle: saline) 114 % of control.
As for `CCSC(CC(C)=O)c1ccc(Cl)c(Cl)c1` (centres undefined), the T/C was 104 % of control under setting [8], 107 % of control under setting [1] and 118 % of control under setting [3].

(Values after PubChem BioAssay AID328 (DTP/NCI, 2004).)
